Laboratory results published in patent EP2578218A1, “Antiviral efficacy of disodium 2,6-dimethyl-1,4-dihydropyridine-3,5-bis(carbonyloxyacetate) and its derivatives” (Grindeks, A Joint Stock Company, priority 2011, dated 2013).

tested on: influenza virus (H3N2); assay: antiviral efficacy on MDCK cell line in vitro; assay type: cell-based; details: MDCK cells infected with influenza virus (H3N2); test compound present from 1 hour after viral infection until end of culture; over a wide concentration range (FIG.3-5)
Description: For influenza virus, MDCK cells that were permissive of viral replication were grown up to sufficient numbers in growth media with supplements. Once MDCK cells were confluent they were seeded into 96 well flat-bottomed plates (2x10^4 cells/well), incubated overnight and then infected with the influenza virus (H3N2) at the correct concentration and incubated in order to allow productive infection of the MDCK cells.
After the initial seeding of cells overnight (200 µl/well), the medium was removed and influenza viral infection performed in a smaller volume (25µl/well) for 1 hour. After the 1 hour infection, the viral inoculum was removed and replaced with medium (200p1/well) containing test compound. Thus, disodium 2,6-dimethyl-1,4-dihydropyridine-3,5-bis(carbonyloxyacetate) and its derivatives - disodium 2,4,6-trimethyl-1,4-dihydropyridine-3,5-bis-carbonyloxyacetate and disodium 4-ethyl-2,6-dimethyl-1,4-dihydropyridine-3,5-bis(carbonyloxyacetate) (compounds with general formula I), were presented from 1 hour after viral infection until the end of the culture period.
The antiviral efficacy of disodium 2,6-dimethyl-1,4-dihydropyridine-3,5-bis(carbonyloxyacetate) and its derivatives - disodium 2,4,6-trimethyl-1,4-dihydropyridine-3,5-bis(carbonyloxyacetate) and disodium 4-ethyl-2,6-dimethyl-1,4-dihydropyridine-3,5-bis(carbonyloxyacetate) (compounds with general formula I), were compared with already known medicaments, such as 1-methyl-2-phenylthiomethyl-3-carbethoxy-4-dimethylaminomethyl-5-oxybromoindole monohydrate hydrochloride and Oseltamivir, and results were represented in FIG.1., FIG.2., FIG.3., FIG.4. and FIG.5.

Compound	antiviral efficacy
CC1=C(C(=O)OCC(=O)O)C(C)C(C(=O)OCC(=O)O)=C(C)N1 [disodium 2,4,6-trimethyl-1,4-dihydropyridine-3,5-bis-carbonyloxyacetate]	effective against influenza
CC1=C(C(=O)OCC(=O)O)CC(C(=O)OCC(=O)O)=C(C)N1 [disodium 2,6-dimethyl-1,4-dihydropyridine-3,5-bis(carbonyloxyacetate)]	effective against influenza
CCC1C(C(=O)OCC(=O)O)=C(C)NC(C)=C1C(=O)OCC(=O)O [disodium 4-ethyl-2,6-dimethyl-1,4-dihydropyridine-3,5-bis(carbonyloxyacetate)]	effective against influenza
